In ChEMBL document CHEMBL6109041, “Docking and structure activity relationship studies of potent and selective thiazolidinethione GSK-3 inhibitors” (Bioorg Med Chem Lett, 2025):

Experiments:
[1] = target: T1, Glycogen synthase kinase-3 beta (Homo sapiens, UniProt P49841); assay: Inhibition of GSK3beta (unknown origin) at 2 uM relative to control
Target sequence in this assay (P49841 whole entry, looked up): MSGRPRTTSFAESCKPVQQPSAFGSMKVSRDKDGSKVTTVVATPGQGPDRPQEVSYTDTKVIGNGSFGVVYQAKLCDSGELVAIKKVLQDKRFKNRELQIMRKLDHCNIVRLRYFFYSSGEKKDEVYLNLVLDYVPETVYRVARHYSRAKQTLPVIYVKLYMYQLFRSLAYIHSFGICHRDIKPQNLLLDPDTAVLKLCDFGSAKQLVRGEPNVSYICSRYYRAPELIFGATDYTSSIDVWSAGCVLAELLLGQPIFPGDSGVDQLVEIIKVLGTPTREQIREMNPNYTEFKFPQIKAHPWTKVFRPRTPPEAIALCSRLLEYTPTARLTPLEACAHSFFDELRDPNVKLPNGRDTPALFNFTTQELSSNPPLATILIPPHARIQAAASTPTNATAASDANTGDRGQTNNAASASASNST

[2] = target: T2, Glycogen synthase kinase-3 alpha (Homo sapiens, UniProt P49840); assay: Inhibition of GSK3alpha (unknown origin) at 2 uM relative to control
Target sequence in this assay (P49840 2-483 limits assumed): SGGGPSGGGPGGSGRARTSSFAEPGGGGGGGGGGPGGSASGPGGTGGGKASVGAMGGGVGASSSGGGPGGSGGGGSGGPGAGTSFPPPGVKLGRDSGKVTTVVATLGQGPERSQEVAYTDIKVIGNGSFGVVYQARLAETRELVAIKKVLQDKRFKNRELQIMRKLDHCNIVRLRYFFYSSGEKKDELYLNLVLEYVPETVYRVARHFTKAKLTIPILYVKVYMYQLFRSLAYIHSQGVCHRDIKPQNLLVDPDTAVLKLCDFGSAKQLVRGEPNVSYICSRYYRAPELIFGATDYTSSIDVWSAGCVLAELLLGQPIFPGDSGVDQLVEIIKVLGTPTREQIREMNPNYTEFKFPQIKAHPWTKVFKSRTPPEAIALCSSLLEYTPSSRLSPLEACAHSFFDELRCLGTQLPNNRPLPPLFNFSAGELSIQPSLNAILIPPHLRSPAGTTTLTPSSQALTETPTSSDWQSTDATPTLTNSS

[3] = target: T2, Glycogen synthase kinase-3 alpha; assay: Inhibition of GSK3alpha (unknown origin)
Target sequence in this assay (P49840 whole entry): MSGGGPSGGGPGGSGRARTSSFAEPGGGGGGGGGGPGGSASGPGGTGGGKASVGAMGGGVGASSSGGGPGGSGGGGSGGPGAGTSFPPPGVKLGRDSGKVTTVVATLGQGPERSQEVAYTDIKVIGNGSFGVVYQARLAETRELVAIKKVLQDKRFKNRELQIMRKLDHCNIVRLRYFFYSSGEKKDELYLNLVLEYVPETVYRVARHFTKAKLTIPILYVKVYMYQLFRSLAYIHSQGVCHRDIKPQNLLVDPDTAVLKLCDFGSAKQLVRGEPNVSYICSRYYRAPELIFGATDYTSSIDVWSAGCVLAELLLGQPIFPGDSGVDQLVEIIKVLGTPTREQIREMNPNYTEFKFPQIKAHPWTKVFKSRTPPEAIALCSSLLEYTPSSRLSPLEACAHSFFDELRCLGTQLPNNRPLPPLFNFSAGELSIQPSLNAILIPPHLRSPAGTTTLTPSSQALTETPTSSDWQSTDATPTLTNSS

[4] = target: T1, Glycogen synthase kinase-3 beta; assay: Inhibition of GSK3beta (unknown origin)
Target sequence in this assay (P49841 whole entry): as the sequence (P49841 whole entry, looked up) above

inhibition [1] [%]	inhibition [2] [%]	IC50 [3] [µM]	IC50 [4] [µM]	SMILES
> 90	> 90	0.0182	0.0122	OC1(c2ccccc2)CSC(=S)N1Cc1ccncc1 (stereo not drawn)
–	–	> 10	> 10	OC1(c2ccccc2)CSC(=S)N1Cc1ccccc1 (stereo not drawn)
–	–	> 10	> 10	OC1(c2ccccc2)CSC(=S)N1Cc1ccccn1 (stereo not drawn)
